# Source: PMC9331678 (Molecules, 2022)
# What was measured:
# [1] = 6 h benchtop (early preanalytical) stability in whole blood and in plasma; assay type: in vitro ADME, human; conditions: ambient temperature (25 °C), up to 6 h
# Procedure: Six independent plasma samples were processed. The reference solutions were 140 µL acetonitrile-water 4:1 (v/v) mixtures spiked as described above. The mixtures and the reference solutions were subsequently diluted with 90 µL water. Internal standard-corrected matrix factors were calculated as the peak area ratios of the analytes and the internal standards in prepared plasma versus those in a neat solution. In the stability studies, the recoveries of IBR and DIB were calculated as the ratio of the concentrations measured after incubation and those measured at the beginning of the study.
# The preanalytical stability of IBR and DIB was evaluated by adding 20 µL methanol solutions containing 500 ng/mL IBR and DIB to two 1.0 mL aliquots of blood freshly drawn into phlebotomy tubes containing K3-EDTA. Three samples, 3 mL each, were taken from three healthy volunteers (manuscript authors G.B.K., I.V. and Z.K.). One of the fractions was centrifuged at 3000 rpm and 10 °C for 10 min immediately after spiking the analytes, and plasma was separated. Both spiked whole blood and the separated plasma were kept at ambient temperature for 6 h. […] Fifty microliters was drawn from the supernatant of the whole blood sample as well as from the plasma, and was processed as described in Section 2.2.
# [2] = cited from earlier work
# plasma albumin = conditions: cited from earlier work
# [3] = cited from earlier work; remark: listed apart in the source
# [4] = plasma kept at ambient temperature for 24 h; ref 24 (Huynh et al.); cited from earlier work
smiles,measurement,setting,value
"C=CC(=O)N1CCC[C@@H](n2nc(-c3ccc(Oc4ccccc4)cc3)c3c(N)ncnc32)C1 [Ibrutinib, 1-[(3R)-3-[4-Amino-3-(4-phenoxyphenyl)-1H-pyrazolo[3,4-d]pyrimidin-1-yl]-1-piperidinyl]-2-propen-1-one]",recovery at 9.8 ng/mL,"[1]; human, plasma (separated from spiked K3-EDTA whole blood), plasma, all analyses",≥ 85%
same,cases with recoveries lower than 85% (of fifteen analyses),[1]; whole blood,two
same,oral bioavailability,[2],low
same,affinity to plasma albumin,plasma albumin,> 95%
same,solubility in water,[3],poor
same,recoveries,[4],46.7–72.9%
